Test results as given in the NIST ThermoML archive (doi:10.1021/je8001199).

Experiments:
[1] = 200 kPa, Liquid
[2] = xn = mol fraction of the nth substance listed; conditions: 200 kPa, Liquid

NCCN [ethane-1,2-diamine]
[1]
Conditions | mass density [kg/m3]
283.55 K | 905.993
293.06 K | 897.168
302.4 K | 888.38
312.67 K | 878.632
323.15 K | 868.618
332.78 K | 859.342
342.77 K | 849.651
352.69 K | 839.921

NCCN [ethane-1,2-diamine] + O
[2]
Conditions | mass density [kg/m3]
282.78 K, x2 = 0.3967 | 956.193
282.92 K, x2 = 0.2017 | 929.116
282.96 K, x2 = 0.301 | 942.071
283.11 K, x2 = 0.8936 | 1000.8
283.13 K, x2 = 0.1028 | 917.186
283.26 K, x2 = 0.5026 | 973.123
283.47 K, x2 = 0.7687 | 1005.97
283.55 K, x2 = 0 | 905.993
283.69 K, x2 = 0.6032 | 989.21
284.35 K, x2 = 0.7026 | 1001.48
292.62 K, x2 = 0.8936 | 996.472
292.67 K, x2 = 0.5026 | 964.635
292.85 K, x2 = 0.7026 | 994.548
292.93 K, x2 = 0.2017 | 919.983
292.93 K, x2 = 0.301 | 933.047
293.05 K, x2 = 0.1028 | 908.064
293.06 K, x2 = 0 | 897.168
293.09 K, x2 = 0.3967 | 946.948
293.24 K, x2 = 0.7687 | 998.968
293.29 K, x2 = 0.6032 | 980.744
301.58 K, x2 = 0.7026 | 987.238
302.39 K, x2 = 0.6032 | 972.594
302.4 K, x2 = 0 | 888.38
302.47 K, x2 = 0.7687 | 992.107
302.85 K, x2 = 0.3967 | 938.019
302.85 K, x2 = 0.5026 | 955.328
302.96 K, x2 = 0.301 | 923.821
302.97 K, x2 = 0.8936 | 991.261
302.99 K, x2 = 0.1028 | 898.81
303.1 K, x2 = 0.2017 | 910.588
311.86 K, x2 = 0.7026 | 978.33
312.55 K, x2 = 0.6032 | 963.3
312.59 K, x2 = 0.7687 | 984.36
312.67 K, x2 = 0 | 878.632
312.77 K, x2 = 0.5026 | 946.166
313 K, x2 = 0.301 | 914.5
313.02 K, x2 = 0.8936 | 985.719
313.11 K, x2 = 0.1028 | 889.308
313.14 K, x2 = 0.2017 | 901.221
313.98 K, x2 = 0.3967 | 927.719
322.34 K, x2 = 0.7687 | 976.647
322.65 K, x2 = 0.6032 | 953.972
322.72 K, x2 = 0.7026 | 968.66
322.86 K, x2 = 0.301 | 905.205
322.88 K, x2 = 0.5026 | 936.708
322.93 K, x2 = 0.2017 | 891.98
323.04 K, x2 = 0.1028 | 879.883
323.15 K, x2 = 0 | 868.618
323.15 K, x2 = 0.8936 | 979.69
323.75 K, x2 = 0.3967 | 918.543
332.41 K, x2 = 0.7026 | 960.004
332.77 K, x2 = 0.7687 | 968.171
332.78 K, x2 = 0 | 859.342
332.89 K, x2 = 0.5026 | 927.173
332.96 K, x2 = 0.301 | 895.557
333.02 K, x2 = 0.6032 | 944.229
333.1 K, x2 = 0.1028 | 870.208
333.11 K, x2 = 0.2017 | 882.167
333.38 K, x2 = 0.8936 | 973.322
333.53 K, x2 = 0.3967 | 909.227
342.6 K, x2 = 0.7687 | 959.937
342.64 K, x2 = 0.5026 | 917.789
342.77 K, x2 = 0 | 849.651
342.81 K, x2 = 0.3967 | 900.276
342.98 K, x2 = 0.301 | 885.862
343.04 K, x2 = 0.1028 | 860.531
343.08 K, x2 = 0.7026 | 950.214
343.09 K, x2 = 0.8936 | 966.519
343.13 K, x2 = 0.2017 | 872.529
352.14 K, x2 = 0.7687 | 951.742
352.69 K, x2 = 0 | 839.921
352.71 K, x2 = 0.5026 | 907.894
352.83 K, x2 = 0.301 | 876.2
352.9 K, x2 = 0.8936 | 959.494
353.02 K, x2 = 0.1028 | 850.773
353.03 K, x2 = 0.2017 | 862.815
353.34 K, x2 = 0.3967 | 889.949
353.48 K, x2 = 0.7026 | 940.524

O [water] + NCCN
[2], x1 = 1
Conditions | mass density [kg/m3]
283.4 K | 999.862
293.28 K | 998.365
302.62 K | 995.966
312.13 K | 992.723
322.73 K | 988.284
332.94 K | 983.292
342.53 K | 978.02
352.19 K | 972.189
